Reference: ChEMBL document CHEMBL1949563, “1,3,4-Thiadiazole derivatives as selective inhibitors of iNOS versus nNOS: Synthesis and structure-activity dependence” (Eur J Med Chem, 2012)

Legend:
[1] = target: T1, Nitric oxide synthase, inducible (Homo sapiens, UniProt P35228); test: Inhibition of iNOS assessed as conversion of L-[3H]arginine to L-[3H]-citrulline at 50 uM after 30 mins by scintillation counting
[2] = target: Nitric oxide synthase 1 (Homo sapiens) (UniProt P29475); test: Inhibition of nNOS assessed as conversion of L-[3H]arginine to L-[3H]-citrulline at 50 uM after 30 mins by scintillation counting
Sequence of Nitric oxide synthase 1 (Homo sapiens) (P29475 whole entry): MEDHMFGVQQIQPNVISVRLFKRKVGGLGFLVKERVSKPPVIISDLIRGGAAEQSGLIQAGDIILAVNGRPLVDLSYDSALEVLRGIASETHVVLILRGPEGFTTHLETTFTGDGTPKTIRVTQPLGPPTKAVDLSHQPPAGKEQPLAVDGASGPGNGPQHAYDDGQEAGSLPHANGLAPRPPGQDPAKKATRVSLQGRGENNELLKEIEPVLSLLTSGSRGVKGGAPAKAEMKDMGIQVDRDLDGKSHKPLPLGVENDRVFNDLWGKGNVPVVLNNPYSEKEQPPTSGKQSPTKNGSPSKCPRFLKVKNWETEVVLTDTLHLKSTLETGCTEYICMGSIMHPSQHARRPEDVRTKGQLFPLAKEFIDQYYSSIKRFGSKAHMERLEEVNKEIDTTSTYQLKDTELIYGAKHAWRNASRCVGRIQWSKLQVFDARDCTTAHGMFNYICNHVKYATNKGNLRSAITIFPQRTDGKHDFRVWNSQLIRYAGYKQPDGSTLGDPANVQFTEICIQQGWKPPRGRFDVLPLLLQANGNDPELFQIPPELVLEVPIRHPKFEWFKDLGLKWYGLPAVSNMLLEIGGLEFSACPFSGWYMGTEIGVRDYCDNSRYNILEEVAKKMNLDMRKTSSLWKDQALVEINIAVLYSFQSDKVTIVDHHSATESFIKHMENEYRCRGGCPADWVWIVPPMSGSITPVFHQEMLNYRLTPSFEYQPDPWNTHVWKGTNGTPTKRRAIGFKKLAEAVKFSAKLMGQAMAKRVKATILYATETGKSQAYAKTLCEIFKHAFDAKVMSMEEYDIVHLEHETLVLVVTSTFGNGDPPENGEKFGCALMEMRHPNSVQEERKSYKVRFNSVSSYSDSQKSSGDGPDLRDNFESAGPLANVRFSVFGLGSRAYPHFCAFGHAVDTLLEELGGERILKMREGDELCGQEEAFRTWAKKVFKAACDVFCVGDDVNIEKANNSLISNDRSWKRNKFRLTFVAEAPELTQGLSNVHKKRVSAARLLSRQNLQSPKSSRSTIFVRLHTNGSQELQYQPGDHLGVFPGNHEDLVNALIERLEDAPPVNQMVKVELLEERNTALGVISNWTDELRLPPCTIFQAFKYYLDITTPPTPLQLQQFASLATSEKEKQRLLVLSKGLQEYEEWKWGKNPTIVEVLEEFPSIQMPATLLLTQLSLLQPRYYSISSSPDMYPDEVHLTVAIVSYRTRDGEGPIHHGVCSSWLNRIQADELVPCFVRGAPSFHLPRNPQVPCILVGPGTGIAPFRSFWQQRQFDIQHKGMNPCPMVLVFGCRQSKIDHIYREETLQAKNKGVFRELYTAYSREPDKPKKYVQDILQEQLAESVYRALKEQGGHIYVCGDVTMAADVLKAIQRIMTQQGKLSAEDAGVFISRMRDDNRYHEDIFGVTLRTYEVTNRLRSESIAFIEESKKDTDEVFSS

[3] = target: T1, Nitric oxide synthase, inducible; test: Inhibition of iNOS assessed as conversion of L-[3H]arginine to L-[3H]-citrulline after 30 mins by scintillation counting

T1 sequence (P35228 whole entry): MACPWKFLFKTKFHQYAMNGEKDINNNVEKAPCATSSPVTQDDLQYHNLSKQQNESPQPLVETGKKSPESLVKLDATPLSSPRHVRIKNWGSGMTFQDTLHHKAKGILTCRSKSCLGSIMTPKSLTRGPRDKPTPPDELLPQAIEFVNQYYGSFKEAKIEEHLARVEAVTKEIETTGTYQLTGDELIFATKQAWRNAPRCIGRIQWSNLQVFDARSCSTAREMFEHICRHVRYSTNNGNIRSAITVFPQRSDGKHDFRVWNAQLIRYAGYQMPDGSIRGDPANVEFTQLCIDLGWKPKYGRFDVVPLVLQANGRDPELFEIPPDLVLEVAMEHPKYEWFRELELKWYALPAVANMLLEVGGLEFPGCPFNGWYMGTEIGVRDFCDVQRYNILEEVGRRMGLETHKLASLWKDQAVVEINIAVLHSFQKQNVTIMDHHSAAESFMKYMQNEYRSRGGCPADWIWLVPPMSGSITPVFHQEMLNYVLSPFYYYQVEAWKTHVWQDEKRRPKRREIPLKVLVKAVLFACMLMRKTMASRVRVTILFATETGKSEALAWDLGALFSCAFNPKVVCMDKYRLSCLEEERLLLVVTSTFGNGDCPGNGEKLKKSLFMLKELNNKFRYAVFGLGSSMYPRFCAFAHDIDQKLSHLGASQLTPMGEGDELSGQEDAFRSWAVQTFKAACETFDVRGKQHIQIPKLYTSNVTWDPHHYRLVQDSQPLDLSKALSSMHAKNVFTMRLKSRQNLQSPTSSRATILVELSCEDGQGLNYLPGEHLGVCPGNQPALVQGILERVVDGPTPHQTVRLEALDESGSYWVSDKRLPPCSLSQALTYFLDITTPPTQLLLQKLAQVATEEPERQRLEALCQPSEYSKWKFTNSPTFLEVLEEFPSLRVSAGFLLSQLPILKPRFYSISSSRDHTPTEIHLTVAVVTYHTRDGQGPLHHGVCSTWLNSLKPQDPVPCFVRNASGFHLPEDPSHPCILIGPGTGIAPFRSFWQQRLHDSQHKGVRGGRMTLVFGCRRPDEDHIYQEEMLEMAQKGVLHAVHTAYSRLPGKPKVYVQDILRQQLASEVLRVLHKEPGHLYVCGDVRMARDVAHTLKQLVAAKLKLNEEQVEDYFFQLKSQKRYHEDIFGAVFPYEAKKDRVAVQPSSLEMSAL

inhibition [1] | inhibition [2] | IC50 [3] | SMILES
90% | 9.95% | 41 µM | COc1ccc(N)c(C2=NN(C(=O)C3CC3)C(C)(C)S2)c1
1.07% | 18.3% | – | CCC(=O)N1N=C(c2cc(Cl)ccc2N)SC1(C)C
66.2% | 27.7% | – | CCCC(=O)N1N=C(c2cc(Cl)ccc2N)SC1(C)C
73% | 8.85% | – | CCC(=O)N1N=C(c2cc(OC)ccc2N)SC1(C)C
7.61% | 23.1% | – | CC1(C)SC(c2cc(Cl)ccc2N)=NN1C(=O)C1CCCCC1
93% | 7.32% | 34 µM | CC1(C)SC(c2ccccc2N)=NN1C(=O)C1CC1
57.8% | 13.7% | – | COc1ccc(N)c(C2=NN(C(=O)C3CCC3)C(C)(C)S2)c1
39% | 38% | – | CCCCC(=O)N1N=C(c2ccccc2N)SC1(C)C
39.8% | 42.4% | – | CC1(C)SC(c2ccccc2N)=NN1C(=O)c1ccccc1
77.1% | 43.3% | – | COc1ccc(N)c(C2=NN(C(C)=O)C(C)(C)S2)c1
21.3% | 8.37% | – | CC1(C)SC(c2cc(Cl)ccc2N)=NN1C(=O)C1CCCC1
23.2% | 21.9% | – | CC1(C)SC(c2cc(Cl)ccc2N)=NN1C(=O)C1CC1
0% | 17.2% | – | COc1ccc(N)c(C2=NN(C(=O)c3ccccc3)C(C)(C)S2)c1
-4.65% | 4.56% | – | CC1(C)SC(c2cc(Cl)ccc2N)=NN1C(=O)C1CCC1
35.2% | 17.5% | – | CCCC(=O)N1N=C(c2ccccc2N)SC1(C)C
42.1% | 9.34% | – | CC1(C)SC(c2ccccc2N)=NN1C(=O)C1CCCC1
28% | 6.8% | – | CC1(C)SC(c2ccccc2N)=NN1C(=O)C1CCCCC1
19.2% | 24.2% | – | CCC(=O)N1N=C(c2ccccc2N)SC1(C)C
100% | 11.3% | 21.9 µM | COc1ccc(N)c(C2=NN(C(=O)C3CCCCC3)C(C)(C)S2)c1
22.9% | 13.3% | – | CC(=O)N1N=C(c2ccccc2N)SC1(C)C
101% | 14.6% | – | CCCCC(=O)N1N=C(c2cc(OC)ccc2N)SC1(C)C
72.8% | 22.5% | – | CC(=O)N1N=C(c2cc(Cl)ccc2N)SC1(C)C
91.1% | 9.58% | 29.6 µM | CCCC(=O)N1N=C(c2cc(OC)ccc2N)SC1(C)C
12.6% | 38% | – | CCCCC(=O)N1N=C(c2cc(Cl)ccc2N)SC1(C)C
46.9% | 2.98% | – | CC1(C)SC(c2ccccc2N)=NN1C(=O)C1CCC1
65% | 17.4% | – | COc1ccc(N)c(C2=NN(C(=O)C3CCCC3)C(C)(C)S2)c1
20.8% | 23.6% | – | CC1(C)SC(c2cc(Cl)ccc2N)=NN1C(=O)c1ccccc1
